# Results as given in US20200407717A1, “METHODS OF MODULATING ANTISENSE ACTIVITY” (Ionis Pharmaceuticals, Inc., priority 2018, published 2020).
# e = 2'-O-(2-methoxyethyl) (MOE); d = 2'-deoxy (DNA)
# System: Drosha mRNA
# Experiment: Antisense activity by RT-qPCR, Drosha, A431 cells
# Type: cell-based, Human
# Procedure: A431 cells were grown at 10,000 cells per well and pre-treated with a variety of growth factors to determine if the addition of exogenous growth factors affects antisense activity or uptake of modified antisense oligonucleotides in a cell. The growth factors used were EGF, insulin growth factor (IGF), transforming growth factor (TGF), […] (VEGF), hepatocyte growth factor (HGF), platelet growth factor (PGF) and fibroblasts growth factor (FGF). To test antisense activity, cells were treated for 4 hours with a growth factor or vehicle alone, and then treated with compound no. 25690 (complementary to Drosha), compound no. 395254 (complementary to Malat1), or vehicle alone. RNA was isolated from the cells and Drosha or Malat1 RNA levels were measured by RT-qPCR. Human primer probe set 13816 (forward sequence […], designated herein as SEQ ID NO: 3; reverse sequence […], designated herein as SEQ ID NO: 4; probe sequence […], designated herein as SEQ ID NO: 5) was used to measure Drosha mRNA levels and primer probe set RTS2736 (forward sequence […], designated herein as SEQ ID NO: 6; reverse sequence […], designated herein as SEQ ID NO: 7; probe sequence TGCCACATCGCCACCCCGT, designated herein as SEQ ID NO: 8) was used to measure Malat1 RNA levels. Drosha and Malat1 RNA levels were normalized to total RNA content, as measured by RIBOGREEN®. Results are presented in the tables below as normalized RNA levels, relative to untreated control cells.
# A431 cells were treated with EGF or TGF at 200 ng/mL in the presence or absence of 1 μM of the EGFR tyrosine kinase inhibitor PD174265. The cells were then treated with compound no. 25690 or compound no. 395254 as in Example 8. Total RNA was isolated and analyzed by RT-qPCR, as in Example 8.
# Following siRNA treatment, cells were treated with compound no. 25690 or compound no. 395254 in the presence or absence of EGF. 16 hours after treatment with a PS-ASO with or without EGF, cells were harvested, and RNA levels were analyzed via RT-qPCR as in Example 8.
sequence,measurement,setting,value
"AGGAAGGAAGCTGGCGATCT (sugars from the 5' end e5 d10 e5, all phosphorothioate, methylation of C not given here) [compound 25690]",Drosha mRNA (% Control),"19.5 nM, Control",100.0 % Control
same,Drosha mRNA (% Control),"19.5 nM, EGF",100.0 % Control
same,Drosha mRNA (% Control),"19.5 nM, TGF",100.0 % Control
same,Drosha mRNA (% Control),"39 nM, Control",104.3 % Control
same,Drosha mRNA (% Control),"39 nM, EGF",98.0 % Control
same,Drosha mRNA (% Control),"39 nM, TGF",95.1 % Control
same,Drosha mRNA (% Control),"78 nM, Control",100.3 % Control
same,Drosha mRNA (% Control),"78 nM, EGF",98.0 % Control
same,Drosha mRNA (% Control),"78 nM, TGF",80.2 % Control
same,Drosha mRNA (% Control),"97.7 nM, Control",100.0 % Control
same,Drosha mRNA (% Control),"97.7 nM, Control Luciferase siRNA",100.0 % Control
same,Drosha mRNA (% Control),"97.7 nM, Control Luciferase siRNA, Table 26",100.0 % Control
same,Drosha mRNA (% Control),"97.7 nM, Control luciferase + EGF",100.0 % Control
same,Drosha mRNA (% Control),"97.7 nM, Control, Table 20",100.0 % Control
same,Drosha mRNA (% Control),"97.7 nM, EGF",100.0 % Control
same,Drosha mRNA (% Control),"97.7 nM, EGF+PD174265",100.0 % Control
same,Drosha mRNA (% Control),"97.7 nM, EGFR siRNA-1",100.0 % Control
same,Drosha mRNA (% Control),"97.7 nM, EGFR siRNA-2",100.0 % Control
same,Drosha mRNA (% Control),"97.7 nM, EGFR siRNA-2 + EGF",100.0 % Control
same,Drosha mRNA (% Control),"97.7 nM, EGFR siRNA-2, Table 26",100.0 % Control
same,Drosha mRNA (% Control),"97.7 nM, TGF",100.0 % Control
same,Drosha mRNA (% Control),"97.7 nM, TGF+PD174265",100.0 % Control
same,Drosha mRNA (% Control),"156.25 nM, Control",103.8 % Control
same,Drosha mRNA (% Control),"156.25 nM, EGF",70.7 % Control
same,Drosha mRNA (% Control),"156.25 nM, TGF",64.6 % Control
same,Drosha mRNA (% Control),"195 nM, Control",110.0 % Control
same,Drosha mRNA (% Control),"195 nM, Control Luciferase siRNA",81.4 % Control
same,Drosha mRNA (% Control),"195 nM, Control Luciferase siRNA, Table 26",99.2 % Control
same,Drosha mRNA (% Control),"195 nM, Control luciferase + EGF",110.2 % Control
same,Drosha mRNA (% Control),"195 nM, Control, Table 20",110.0 % Control
same,Drosha mRNA (% Control),"195 nM, EGF",98.2 % Control
same,Drosha mRNA (% Control),"195 nM, EGF+PD174265",102.4 % Control
same,Drosha mRNA (% Control),"195 nM, EGFR siRNA-1",103.0 % Control
same,Drosha mRNA (% Control),"195 nM, EGFR siRNA-2",88.0 % Control
same,Drosha mRNA (% Control),"195 nM, EGFR siRNA-2 + EGF",107.2 % Control
same,Drosha mRNA (% Control),"195 nM, EGFR siRNA-2, Table 26",105.2 % Control
same,Drosha mRNA (% Control),"195 nM, TGF",95.2 % Control
same,Drosha mRNA (% Control),"195 nM, TGF+PD174265",108.0 % Control
same,Drosha mRNA (% Control),"312.5 nM, Control",92.7 % Control
same,Drosha mRNA (% Control),"312.5 nM, EGF",72.8 % Control
same,Drosha mRNA (% Control),"312.5 nM, TGF",61.1 % Control
same,Drosha mRNA (% Control),"391 nM, Control",99.7 % Control
same,Drosha mRNA (% Control),"391 nM, Control Luciferase siRNA",67.0 % Control
same,Drosha mRNA (% Control),"391 nM, Control Luciferase siRNA, Table 26",100.0 % Control
same,Drosha mRNA (% Control),"391 nM, Control luciferase + EGF",100.0 % Control
same,Drosha mRNA (% Control),"391 nM, Control, Table 20",99.3 % Control
same,Drosha mRNA (% Control),"391 nM, EGF",89.4 % Control
same,Drosha mRNA (% Control),"391 nM, EGF+PD174265",103.3 % Control
same,Drosha mRNA (% Control),"391 nM, EGFR siRNA-1",78.9 % Control
same,Drosha mRNA (% Control),"391 nM, EGFR siRNA-2",83.1 % Control
same,Drosha mRNA (% Control),"391 nM, EGFR siRNA-2, Table 26",100.0 % Control
same,Drosha mRNA (% Control),"391 nM, TGF",85.2 % Control
same,Drosha mRNA (% Control),"391 nM, TGF+PD174265",91.2 % Control
same,Drosha mRNA (% Control),"625 nM, Control",90.9 % Control
same,Drosha mRNA (% Control),"625 nM, EGF",57.2 % Control
same,Drosha mRNA (% Control),"625 nM, TGF",50.8 % Control
same,Drosha mRNA (% Control),"781 nM, Control",88.4 % Control
same,Drosha mRNA (% Control),"781 nM, Control Luciferase siRNA",56.6 % Control
same,Drosha mRNA (% Control),"781 nM, Control Luciferase siRNA, Table 26",77.5 % Control
same,Drosha mRNA (% Control),"781 nM, Control luciferase + EGF",60.8 % Control
same,Drosha mRNA (% Control),"781 nM, Control, Table 20",87.2 % Control
same,Drosha mRNA (% Control),"781 nM, EGF",81.4 % Control
same,Drosha mRNA (% Control),"781 nM, EGF+PD174265",83.6 % Control
same,Drosha mRNA (% Control),"781 nM, EGFR siRNA-1",62.3 % Control
same,Drosha mRNA (% Control),"781 nM, EGFR siRNA-2",64.8 % Control
same,Drosha mRNA (% Control),"781 nM, EGFR siRNA-2 + EGF",98.4 % Control
same,Drosha mRNA (% Control),"781 nM, EGFR siRNA-2, Table 26",89.8 % Control
same,Drosha mRNA (% Control),"781 nM, TGF",67.2 % Control
same,Drosha mRNA (% Control),"781 nM, TGF+PD174265",87.2 % Control
same,Drosha mRNA (% Control),"1250 nM, Control",75.7 % Control
same,Drosha mRNA (% Control),"1250 nM, EGF",52.8 % Control
same,Drosha mRNA (% Control),"1250 nM, TGF",43.4 % Control
same,Drosha mRNA (% Control),"1563 nM, Control",83.2 % Control
same,Drosha mRNA (% Control),"1563 nM, Control Luciferase siRNA",49.2 % Control
same,Drosha mRNA (% Control),"1563 nM, Control Luciferase siRNA, Table 26",70.2 % Control
same,Drosha mRNA (% Control),"1563 nM, Control luciferase + EGF",57.6 % Control
same,Drosha mRNA (% Control),"1563 nM, Control, Table 20",76.3 % Control
same,Drosha mRNA (% Control),"1563 nM, EGF",74.7 % Control
same,Drosha mRNA (% Control),"1563 nM, EGF+PD174265",68.9 % Control
same,Drosha mRNA (% Control),"1563 nM, EGFR siRNA-1",56.0 % Control
same,Drosha mRNA (% Control),"1563 nM, EGFR siRNA-2",61.4 % Control
same,Drosha mRNA (% Control),"1563 nM, EGFR siRNA-2 + EGF",79.4 % Control
same,Drosha mRNA (% Control),"1563 nM, EGFR siRNA-2, Table 26",80.3 % Control
same,Drosha mRNA (% Control),"1563 nM, TGF",65.9 % Control
same,Drosha mRNA (% Control),"1563 nM, TGF+PD174265",78.7 % Control
same,Drosha mRNA (% Control),"2500 nM, Control",63.6 % Control
same,Drosha mRNA (% Control),"2500 nM, EGF",42.8 % Control
same,Drosha mRNA (% Control),"2500 nM, TGF",40.1 % Control
same,Drosha mRNA (% Control),"3125 nM, Control",66.6 % Control
same,Drosha mRNA (% Control),"3125 nM, Control Luciferase siRNA",40.7 % Control
same,Drosha mRNA (% Control),"3125 nM, Control Luciferase siRNA, Table 26",61.6 % Control
same,Drosha mRNA (% Control),"3125 nM, Control luciferase + EGF",40.8 % Control
same,Drosha mRNA (% Control),"3125 nM, Control, Table 20",67.2 % Control
same,Drosha mRNA (% Control),"3125 nM, EGF",55.9 % Control
same,Drosha mRNA (% Control),"3125 nM, EGF+PD174265",62.7 % Control
same,Drosha mRNA (% Control),"3125 nM, EGFR siRNA-1",51.4 % Control
same,Drosha mRNA (% Control),"3125 nM, EGFR siRNA-2",54.6 % Control
same,Drosha mRNA (% Control),"3125 nM, EGFR siRNA-2 + EGF",75.4 % Control
same,Drosha mRNA (% Control),"3125 nM, EGFR siRNA-2, Table 26",70.6 % Control
same,Drosha mRNA (% Control),"3125 nM, TGF",47.2 % Control
same,Drosha mRNA (% Control),"3125 nM, TGF+PD174265",64.2 % Control
same,Drosha mRNA (% Control),"5000 nM, Control",47.6 % Control
same,Drosha mRNA (% Control),"5000 nM, EGF",33.0 % Control
same,Drosha mRNA (% Control),"5000 nM, TGF",31.9 % Control
